In patent publication US12077503B2, “Substituted cyclic amides and their use as herbicides” (FMC CORPORATION, priority 2015, dated 2024):

Assays:
Format in all cases: in vivo
[1] = tested on: barnyardgrass (Echinochloa crus-galli); experiment: Test A preemergence; settings: for Plant response rating, Barnyardgrass: 125 g ai/ha, preemergence, 0 to 100 scale (0 no effect, 100 complete control); for Barnyardgrass plant response rating (0 to 100 scale): Preemergence, 500 g ai/ha, 0 is no effect, 100 is complete control
How it was run: (§1)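 Preemergence soil spray on seeded pots or post-emergence spray on 1–2 leaf plants, in loam–sand blend. Greenhouse ~10 d. Visual rating 0–100 against untreated plants.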

corn (Zea mays) [2] = experiment: Test A preemergence; settings: for Plant response rating, Corn: 125 g ai/ha, preemergence, 0 to 100 scale (0 no effect, 100 complete control); for Corn plant response rating (0 to 100 scale): Preemergence, 500 g ai/ha, 0 is no effect, 100 is complete control
How it was run: as §1

[3] = tested on: crabgrass, large (Digitaria sanguinalis); experiment: Test A preemergence; settings: for Plant response rating, Crabgrass, Large: 125 g ai/ha, preemergence, 0 to 100 scale (0 no effect, 100 complete control); for Crabgrass, Large plant response rating (0 to 100 scale): Preemergence, 500 g ai/ha, 0 is no effect, 100 is complete control
How it was run: as §1

[4] = tested on: giant foxtail (Setaria faberii); experiment: Test A preemergence; settings: for Plant response rating, Foxtail, Giant: 125 g ai/ha, preemergence, 0 to 100 scale (0 no effect, 100 complete control); for Foxtail, Giant plant response rating (0 to 100 scale): Preemergence, 500 g ai/ha, 0 is no effect, 100 is complete control
How it was run: as §1

[5] = tested on: morningglory (Ipomoea spp.); experiment: Test A preemergence; settings: for Plant response rating, Morningglory: 125 g ai/ha, preemergence, 0 to 100 scale (0 no effect, 100 complete control); for Morningglory plant response rating (0 to 100 scale): Preemergence, 500 g ai/ha, 0 is no effect, 100 is complete control
How it was run: as §1

[6] = tested on: pigweed (Amaranthus retroflexus); experiment: Test A preemergence; settings: for Plant response rating, Pigweed: 125 g ai/ha, preemergence, 0 to 100 scale (0 no effect, 100 complete control); for Pigweed plant response rating (0 to 100 scale): Preemergence, 500 g ai/ha, 0 is no effect, 100 is complete control
[7] = tested on: velvetleaf (Abutilon theophrasti); experiment: Test A preemergence; settings: for Plant response rating, Velvetleaf: 125 g ai/ha, preemergence, 0 to 100 scale (0 no effect, 100 complete control); for Velvetleaf plant response rating (0 to 100 scale): Preemergence, 500 g ai/ha, 0 is no effect, 100 is complete control
How it was run: as §1

[8] = tested on: wheat (Triticum aestivum); experiment: Test A preemergence; settings: for Plant response rating, Wheat: 125 g ai/ha, preemergence, 0 to 100 scale (0 no effect, 100 complete control); for Wheat plant response rating (0 to 100 scale): Preemergence, 500 g ai/ha, 0 is no effect, 100 is complete control
How it was run: as §1

[9] = tested on: barnyardgrass (Echinochloa crus-galli); experiment: Test A postemergence
How it was run: as §1

corn (Zea mays) [10] = experiment: Test A postemergence
How it was run: as §1

[11] = tested on: crabgrass, large (Digitaria sanguinalis); experiment: Test A postemergence
How it was run: as §1

[12] = tested on: giant foxtail (Setaria faberii); experiment: Test A postemergence
How it was run: as §1

[13] = tested on: morningglory (Ipomoea spp.); experiment: Test A postemergence
How it was run: as §1

[14] = tested on: pigweed (Amaranthus retroflexus); experiment: Test A postemergence
How it was run: as §1

[15] = tested on: velvetleaf (Abutilon theophrasti); experiment: Test A postemergence
How it was run: as §1

[16] = tested on: wheat (Triticum aestivum); experiment: Test A postemergence
How it was run: as §1

[17] = tested on: barnyardgrass (Echinochloa crus-galli); experiment: Test B flooded paddy test; settings: Flood, 0 to 100 scale where 0 is no effect and 100 is complete control, 13 to 15 d
How it was run: (§2)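 Percent control, visually estimated after 13–15 d in the greenhouse on a 0–100 basis, compares treated pots with untreated ones; compound was put into paddy water 3 cm above the soil when plants had two leaves.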

[18] = tested on: ducksalad (Heteranthera limosa); experiment: Test B flooded paddy test; settings: Flood, 0 to 100 scale where 0 is no effect and 100 is complete control, 13 to 15 d
How it was run: as §2

rice (Oryra sativa) = experiment: Test B flooded paddy test; settings: Flood, 0 to 100 scale where 0 is no effect and 100 is complete control, 13 to 15 d
How it was run: as §2

[19] = tested on: sedge, umbrella (small-flower umbrella sedge, Cyperus difformis); experiment: Test B flooded paddy test; settings: Flood, 0 to 100 scale where 0 is no effect and 100 is complete control, 13 to 15 d
How it was run: as §2

[20] = tested on: barnyardgrass (Echinochloa crus-galli); experiment: Test C flooded paddy test; settings: Flood, 0 is no effect, 100 is complete control
How it was run: (§3)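 Compound was added directly to paddy water held 3 cm above the soil, with plants at the 2-leaf stage. Injury was scored visually versus untreated controls after 13–15 d greenhouse growth, using a 0–100 scale where 100 means complete control.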

[21] = tested on: ducksalad (Heteranthera limosa); experiment: Test C flooded paddy test; settings: Flood, 0 is no effect, 100 is complete control
How it was run: as §3

rice (Oryza sativa) = experiment: Test C flooded paddy test; settings: Flood, 0 is no effect, 100 is complete control
How it was run: as §3

[22] = tested on: sedge, umbrella (small-flower umbrella sedge, Cyperus difformis); experiment: Test C flooded paddy test; settings: Flood, 0 is no effect, 100 is complete control
How it was run: as §3

[23] = 500 g ai/ha, postemergence, 0 to 100 scale, 0 no effect, 100 complete control
[24] = Postemergence, 125 g ai/ha, visual injury, 0 to 100 scale (0 no effect, 100 complete control), approx. 10 d

O=C1NCC(c2ccc(-c3ccccc3)cc2)C1C(=O)Nc1ccccc1C(F)(F)F (racemic) [Compound 367]
Plant response rating, Barnyardgrass [1]: 0
Barnyardgrass plant response rating (0 to 100 scale) [1]: 0
Plant response rating, Corn (corn (Zea mays) [2]): 0
Corn plant response rating (0 to 100 scale) (corn (Zea mays) [2]): 0
Plant response rating, Crabgrass, Large [3]: 0
Crabgrass, Large plant response rating (0 to 100 scale) [3]: 0
Plant response rating, Foxtail, Giant [4]: 0
Foxtail, Giant plant response rating (0 to 100 scale) [4]: 0
Plant response rating, Morningglory [5]: 0
Morningglory plant response rating (0 to 100 scale) [5]: 0
Plant response rating, Pigweed [6]: 0
Pigweed plant response rating (0 to 100 scale) [6]: 0
Plant response rating, Velvetleaf [7]: 0
Velvetleaf plant response rating (0 to 100 scale) [7]: 0
Plant response rating, Wheat [8]: 0
Wheat plant response rating (0 to 100 scale) [8]: 0
Plant response rating, Barnyardgrass [9, 23]: 0
Plant response rating, Barnyardgrass [9, 24]: 0
Plant response rating, Corn (corn (Zea mays) [10]; [23]): 0
Plant response rating, Corn (corn (Zea mays) [10]; [24]): 0
Plant response rating, Crabgrass, Large [11, 23]: 0
Plant response rating, Crabgrass, Large [11, 24]: 0
Plant response rating, Foxtail, Giant [12, 23]: 0
Plant response rating, Foxtail, Giant [12, 24]: 0
Plant response rating, Morningglory [13, 23]: 0
Plant response rating, Morningglory [13, 24]: 0
Plant response rating, Pigweed [14, 23]: 0
Plant response rating, Pigweed [14, 24]: 0
Plant response rating, Velvetleaf [15, 23]: 0
Plant response rating, Velvetleaf [15, 24]: 0
Plant response rating, Wheat [16, 23]: 0
Plant response rating, Wheat [16, 24]: 0
Plant response rating, Barnyardgrass ([17]; 1000 g ai/ha): 0
Plant response rating, Ducksalad ([18]; 1000 g ai/ha): 0
Plant response rating, Rice (rice (Oryra sativa); 1000 g ai/ha): 0
Plant response rating, Sedge, Umbrella ([19]; 1000 g ai/ha): 0

Nc1cccc(C2CNC(=O)C2C(=O)Nc2cccc(F)c2F)c1 (stereo not shown) [Compound 353]
Plant response rating, Barnyardgrass [1]: 0
Barnyardgrass plant response rating (0 to 100 scale) [1]: 0
Plant response rating, Corn (corn (Zea mays) [2]): 0
Corn plant response rating (0 to 100 scale) (corn (Zea mays) [2]): 0
Plant response rating, Crabgrass, Large [3]: 0
Crabgrass, Large plant response rating (0 to 100 scale) [3]: 0
Plant response rating, Foxtail, Giant [4]: 0
Foxtail, Giant plant response rating (0 to 100 scale) [4]: 0
Plant response rating, Morningglory [5]: 0
Morningglory plant response rating (0 to 100 scale) [5]: 0
Plant response rating, Pigweed [6]: 0
Pigweed plant response rating (0 to 100 scale) [6]: 0
Plant response rating, Velvetleaf [7]: 0
Velvetleaf plant response rating (0 to 100 scale) [7]: 0
Plant response rating, Wheat [8]: 0
Wheat plant response rating (0 to 100 scale) [8]: 0
Plant response rating, Barnyardgrass [9, 23]: 0
Plant response rating, Barnyardgrass [9, 24]: 0
Plant response rating, Corn (corn (Zea mays) [10]; [23]): 0
Plant response rating, Corn (corn (Zea mays) [10]; [24]): 0
Plant response rating, Crabgrass, Large [11, 23]: 0
Plant response rating, Crabgrass, Large [11, 24]: 0
Plant response rating, Foxtail, Giant [12, 23]: 0
Plant response rating, Foxtail, Giant [12, 24]: 0
Plant response rating, Morningglory [13, 23]: 0
Plant response rating, Morningglory [13, 24]: 0
Plant response rating, Pigweed [14, 23]: 0
Plant response rating, Pigweed [14, 24]: 0
Plant response rating, Velvetleaf [15, 23]: 0
Plant response rating, Velvetleaf [15, 24]: 0
Plant response rating, Wheat [16, 23]: 0
Plant response rating, Wheat [16, 24]: 0
Plant response rating, Barnyardgrass ([17]; 250 g ai/ha): 0
Plant response rating, Ducksalad ([18]; 250 g ai/ha): 0
Plant response rating, Rice (rice (Oryra sativa); 250 g ai/ha): 0
Plant response rating, Sedge, Umbrella ([19]; 250 g ai/ha): 0

O=C1NCC(c2cccnc2)C1C(=O)Nc1ccccc1F (racemic) [Compound 363]
Plant response rating, Barnyardgrass [1]: 0
Barnyardgrass plant response rating (0 to 100 scale) [1]: 0
Plant response rating, Corn (corn (Zea mays) [2]): 0
Corn plant response rating (0 to 100 scale) (corn (Zea mays) [2]): 0
Plant response rating, Crabgrass, Large [3]: 0
Crabgrass, Large plant response rating (0 to 100 scale) [3]: 0
Plant response rating, Foxtail, Giant [4]: 0
Foxtail, Giant plant response rating (0 to 100 scale) [4]: 0
Plant response rating, Pigweed [6]: 0
Pigweed plant response rating (0 to 100 scale) [6]: 0
Plant response rating, Velvetleaf [7]: 0
Velvetleaf plant response rating (0 to 100 scale) [7]: 0
Plant response rating, Wheat [8]: 0
Wheat plant response rating (0 to 100 scale) [8]: 0
Plant response rating, Barnyardgrass [9, 23]: 0
Plant response rating, Barnyardgrass [9, 24]: 0
Plant response rating, Corn (corn (Zea mays) [10]; [23]): 0
Plant response rating, Corn (corn (Zea mays) [10]; [24]): 0
Plant response rating, Crabgrass, Large [11, 23]: 0
Plant response rating, Crabgrass, Large [11, 24]: 0
Plant response rating, Foxtail, Giant [12, 23]: 0
Plant response rating, Foxtail, Giant [12, 24]: 0
Plant response rating, Morningglory [13, 23]: 0
Plant response rating, Morningglory [13, 24]: 0
Plant response rating, Pigweed [14, 23]: 0
Plant response rating, Pigweed [14, 24]: 0
Plant response rating, Velvetleaf [15, 23]: 10
Plant response rating, Velvetleaf [15, 24]: 0
Plant response rating, Wheat [16, 23]: 0
Plant response rating, Wheat [16, 24]: 0
Plant response rating (scale of 0 to 100), Barnyardgrass ([20]; 31 g ai/ha): 0
Plant response rating (scale of 0 to 100), Barnyardgrass ([20]; 62 g ai/ha): 0
Plant response rating (scale of 0 to 100), Barnyardgrass ([20]; 125 g ai/ha): 0
Plant response rating (scale of 0 to 100), Barnyardgrass ([20]; 250 g ai/ha): 0
Plant response rating (scale of 0 to 100), Ducksalad ([21]; 31 g ai/ha): 0
Plant response rating (scale of 0 to 100), Ducksalad ([21]; 62 g ai/ha): 0
Plant response rating (scale of 0 to 100), Ducksalad ([21]; 125 g ai/ha): 0
Plant response rating (scale of 0 to 100), Ducksalad ([21]; 250 g ai/ha): 0
Plant response rating (scale of 0 to 100), Rice (rice (Oryza sativa); 31 g ai/ha): 0
Plant response rating (scale of 0 to 100), Rice (rice (Oryza sativa); 62 g ai/ha): 0
Plant response rating (scale of 0 to 100), Rice (rice (Oryza sativa); 125 g ai/ha): 0
Plant response rating (scale of 0 to 100), Rice (rice (Oryza sativa); 250 g ai/ha): 0
Plant response rating (scale of 0 to 100), Sedge, Umbrella ([22]; 31 g ai/ha): 0
Plant response rating (scale of 0 to 100), Sedge, Umbrella ([22]; 62 g ai/ha): 0
Plant response rating (scale of 0 to 100), Sedge, Umbrella ([22]; 125 g ai/ha): 0
Plant response rating (scale of 0 to 100), Sedge, Umbrella ([22]; 250 g ai/ha): 0
